In this series the target is CYP3A4 (Homo sapiens, UniProt P08684). In words: NFa-based screening and characterizing of hCYP3A4 inhibitors in HLMs. To be noted: human, human liver microsomes, pH 7.4, probe NFa (4-hydroxylation to 4-HNFa).
CYP3A4, sequence (P08684 whole entry): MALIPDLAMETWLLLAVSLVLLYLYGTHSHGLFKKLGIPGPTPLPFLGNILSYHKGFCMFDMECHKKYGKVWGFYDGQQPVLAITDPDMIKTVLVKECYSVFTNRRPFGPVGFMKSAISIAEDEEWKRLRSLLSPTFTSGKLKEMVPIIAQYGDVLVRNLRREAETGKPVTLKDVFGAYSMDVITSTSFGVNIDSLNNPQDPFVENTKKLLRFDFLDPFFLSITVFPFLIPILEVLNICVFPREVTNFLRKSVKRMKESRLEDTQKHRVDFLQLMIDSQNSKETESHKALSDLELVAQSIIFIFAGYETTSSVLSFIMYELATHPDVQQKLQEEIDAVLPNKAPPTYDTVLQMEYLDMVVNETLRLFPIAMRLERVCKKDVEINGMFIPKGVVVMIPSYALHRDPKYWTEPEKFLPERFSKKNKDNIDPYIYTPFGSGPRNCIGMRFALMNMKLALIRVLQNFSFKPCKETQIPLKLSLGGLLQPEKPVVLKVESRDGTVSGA

`COc1ccc(/C=C2\Cc3cc(OC)c(OC)cc3C2=O)cc1` [D6, (E)-5,6-Dimethoxy-2-(4-methoxybenzylidene)-2,3-dihydro-1H-inden-1-one]: the activity at 30 min, 1 µM amounted to 67.8%. Take `COc1cc(O)ccc1/C=C/C(=O)c1ccc(O)cc1` [Echinatin]: the activity at 30 min, 1 µM was determined as 47.6%.

Consider `CCc1ccc2c(c1)C(=O)c1ccccc1C2=O` [2-Ethyl anthraquinone], for which the activity at 30 min, 1 µM amounted to 79.8%. On to `O=c1c(O)c(-c2ccccc2)oc2cc(O)cc(O)c12` [Galangin], for which the activity at 30 min, 1 µM was 94%. For the compound `COc1cc(O)cc2c1C(=O)C[C@@H](c1ccccc1)O2` [Alpinetin], the activity at 30 min, 1 µM was found to be 95.7%.

On to `O=C(/C=C/c1ccc2nccnc2c1)c1ccccc1O` [D15, (E)-1-(2-hydroxyphenyl)-3-(quinoxalin-6-yl)prop-2-en-1-one], for which the activity at 30 min, 1 µM amounted to 64.5%. For `CC1(C)[C@@H](O)CC[C@]2(C)[C@H]3C(=O)C=C4[C@@H]5C[C@@](C)(C(=O)O)CC[C@]5(C)CC[C@@]4(C)[C@]3(C)CC[C@@H]12` [Glycyrrhetinic acid], the activity at 30 min, 1 µM worked out at 66.9%.

`COc1cc(O)c(CC=C(C)C)c(O)c1C(=O)/C=C/c1ccc(O)cc1` [Xanthohumol]: the activity at 30 min, 1 µM came out at 59.9%. For the compound `COc1cc2c(cc1OC)C(=O)/C(=C/c1ccc(-c3ccccc3)cc1)C2` [D3, (E)-2-([1,1'-Biphenyl]-4-ylmethylene)-5,6-dimethoxy-2,3-dihydro-1H-inden-1-one], the activity at 30 min, 1 µM is 75.9%.

As for `COc1ccc(-c2coc3cc(O)ccc3c2=O)cc1` [Formononetin], the activity at 30 min, 1 µM worked out at 98.9%. In the case of `COc1cc2c(=O)c(-c3ccc(O)cc3)coc2cc1O` [Glycitein], the activity at 30 min, 1 µM was 104%.

Take `CC(C)=CCc1cc(-c2coc3cc(O)ccc3c2=O)ccc1O` [Neobavaisoflavone]: the activity at 30 min, 1 µM stood at 87.9%. Regarding `O=C(O)c1ccc2c(c1)C(=O)c1ccccc1C2=O` [Anthraquinone-2-carboxylic acid], the activity at 30 min, 1 µM was found to be 98%. Take `COc1cc(O)c(C(=O)/C=C/c2ccc3ccccc3c2)c(OC)c1OC` [D9, (E)-1-(6-hydroxy-2,3,4-trimethoxyphenyl)-3-(naphthalen-2-yl)prop-2-en-1-one]: the activity at 30 min, 1 µM worked out at 85%.

Regarding `O=C1c2cccc(O)c2C(=O)c2cccc(O)c21` [1,5-Dihydroxyanthraquinone], the activity at 30 min, 1 µM turned out to be 99.8%. As for `COc1cc2c(cc1OC)C(=O)/C(=C/c1cccc(C)c1)C2` [D5, (E)-5,6-dimethoxy-2-(3-methylbenzylidene)-2,3-dihydro-1H-inden-1-one], the activity at 30 min, 1 µM amounted to 72.3%. Turning to `O=C1c2cccc(Cl)c2C(=O)c2c(Cl)cccc21` [1,8-Dichloroanthraquinone], the activity at 30 min, 1 µM is 85.5%. As to `COc1cc(O)c(C(=O)/C=C/c2ccc3nccnc3c2)c(OC)c1` [D18, (E)-1-(2-hydroxy-4,6-dimethoxyphenyl)-3-(quinoxalin-6-yl)prop-2-en-1-one], the activity at 30 min, 1 µM came to 54%. For `Nc1cccc2c1C(=O)c1ccccc1C2=O` [1-Aminoanthraquinone], the activity at 30 min, 1 µM was 62.6%. The value for `O=c1c(O)c(-c2ccc(O)cc2)oc2c(O)c(O)cc(O)c12` [Herbacetin] was 91.1%; that for `O=c1c(O)c(-c2ccc(O)cc2)oc2cc(O)cc(O)c12` [Kaempferol] was 67.9%; that for `O=c1cc(-c2ccccc2)oc2c(O)c(O)cc(O)c12` [Norwogonin] was 85.3%. Consider `COc1cc2c(cc1OC)C(=O)/C(=C/c1ccco1)C2` [D2, (E)-2-(Furan-2-ylmethylene)-5,6-dimethoxy-2,3-dihydro-1H-inden-1-one], for which the activity at 30 min, 1 µM was 102%. Consider `COc1cc2c(cc1OC)C(=O)/C(=C/c1ccccc1C)C2` [D4, (E)-5,6-Dimethoxy-2-(2-methylbenzylidene)-2,3-dihydro-1H-inden-1-one], for which the activity at 30 min, 1 µM worked out at 58.1%. For the compound `COc1cc(O)c(C(=O)/C=C/c2ccc3ncccc3c2)c(OC)c1OC` [D12, (E)-1-(6-hydroxy-2,3,4-trimethoxyphenyl)-3-(quinolin-6-yl)prop-2-en-1-one], the activity at 30 min, 1 µM came to 70%. For the compound `O=C(/C=C/c1ccc2ccccc2c1)c1ccccc1O` [D8, (E)-1-(2-hydroxyphenyl)-3-(naphthalen-2-yl)prop-2-en-1-one], the activity at 30 min, 1 µM came to 88%. For `COc1ccc(C(=O)/C=C/c2ccc3nc(Cl)ccc3c2)c(O)c1` [D17, (E)-3-(2-chloroquinolin-6-yl)-1-(2-hydroxy-4-methoxyphenyl)prop-2-en-1-one], the activity at 30 min, 1 µM was determined as 83.6%. Turning to `Cc1c(O)c(C)c2c(c1O)C(=O)C[C@@H](c1ccc(O)cc1)O2` [Farrerol], the activity at 30 min, 1 µM is 73.5%. Consider `COc1cccc(O)c1C(=O)/C=C/c1ccc2nc(Cl)ccc2c1` [D16, (E)-3-(2-chloroquinolin-6-yl)-1-(2-hydroxy-6-methoxyphenyl)prop-2-en-1-one], for which the activity at 30 min, 1 µM is 100%. Take `COc1cc2c(cc1OC)[C@@H](Cc1ccc(Oc3cc(C[C@@H]4c5cc(OC)c(OC)cc5CCN4C)ccc3O)cc1)N(C)CC2` [Dauricine]: the activity at 30 min, 1 µM was determined as 92.8%. The result for `COc1c(O)cc2occ(-c3ccc(O)cc3)c(=O)c2c1O` [Tectorigenin] reads 95.5%; that for `Oc1ccc(/C=C/c2cc(O)cc(O)c2)cc1` [Resveratrol], 72.1%. In the case of `COc1c(OC)c2occc2c2oc(=O)ccc12` [Pimpinellin], the activity at 30 min, 1 µM is 103%. On to `COc1ccc(-c2cc(=O)c3c(O)cc(O)cc3o2)cc1` [Acacetin], for which the activity at 30 min, 1 µM came out at 49.9%. With `CC(C)=CCc1c(O)ccc(C(=O)/C=C/c2ccc(O)cc2)c1O` [Isobavachalcone], the activity at 30 min, 1 µM worked out at 54.2%. In the case of `C[C@H]1[C@H](C)CC[C@]2(C(=O)O)CC[C@]3(C)C(=CC[C@@H]4[C@@]5(C)CC[C@H](O)C(C)(C)[C@@H]5CC[C@]43C)[C@H]12` [Ursolic acid], the activity at 30 min, 1 µM is 99.3%. For `COc1cccc(C(=O)/C=C/c2ccc3nccnc3c2)c1` [D14, (E)-1-(3-methoxyphenyl)-3-(quinoxalin-6-yl)prop-2-en-1-one], the activity at 30 min, 1 µM amounted to 63.9%. The result for `O=C(O)c1ccc(O)c(O)c1` [Protocatechuic acid] reads 109%; that for `O=C1c2ccccc2C(=O)c2c(O)cccc21` [1-Hydroxy anthraquinone], 90.5%.

Take `O=C1c2ccc(O)cc2C(=O)c2ccc(O)cc21` [2,6-Dihydroxyanthraquinone]: the activity at 30 min, 1 µM came out at 88.8%. As for `Cc1ccc2c(c1)C(=O)c1ccccc1C2=O` [2-Methyl anthraquinone], the activity at 30 min, 1 µM stood at 83.6%.

In the case of `COc1cc(C[C@H]2C(=O)OC[C@@H]2Cc2ccc(OC)c(OC)c2)ccc1O` [Arctigenin], the activity at 30 min, 1 µM was 103%. As for `CC(C)=CCc1cc2c(cc1O)O[C@H](c1ccc(O)cc1)CC2=O` [Bavachin], the activity at 30 min, 1 µM amounted to 71.6%. `COc1ccccc1C(=O)/C=C/c1ccc2ccccc2c1` [D7, (E)-1-(2-methoxyphenyl)-3-(naphthalen-2-yl)prop-2-en-1-one]: the activity at 30 min, 1 µM is 95.7%. In the case of `O=C(CCc1ccc(O)cc1)c1c(O)cc(O)cc1O` [Phloretin], the activity at 30 min, 1 µM was 97.3%. Regarding `O=C1c2ccc(Br)cc2C(=O)c2ccc(Br)cc21` [2,6-Dibromoanthraquinone], the activity at 30 min, 1 µM came to 85.5%.
